How the values were obtained:
[1] = aqueous solutions of high pH; cited from earlier work
[2] = system: mouse peritoneal exudate macrophages; test: LPS-induced nitric oxide production by macrophages (nitrite, Griess reagent); type: cell-based; details: 2 μg/ml LPS; lactacystin at different concentrations
Method: Nitric oxide production by the macrophages was measured according to the […] concentrations in the supernatants.
BALB/c mice were injected i.p. with 3 ml of 3% thioglycollate broth. Three days later, peritoneal exudate macrophages of the mice were harvested and washed at 170 g for 10 min at 4° C. The macrophages were cultured in Teflon vials (2 cm in diameter) at 4×10^6/2 ml with various reagents (LPS, 2 μg/ml; IFNγ, 100 u/ml; LAC, 0.62-5 μM for the nitric oxide assay and 5 μM for the Northern blot assay).
The nitrite concentration in the culture supernatant was measured as a way to indirectly reflect the nitric oxide level following a method described by Ding et al (Ding et al., 1988, J. Immunology 141:2407). Release of reactive nitrogen intermediates and reactive oxygen intermediates form mouse peritoneal macrophages: comparison of activation cytokines and evidence for independent production. Briefly, 100 μl of supernatants collected from 48 h macrophage cultures was incubated with an equal volume of the Griess reagent (1% sulfanimide/0.1% naphthylethylene diamine dihydrochloride/2.5% H3PO4) at room temperature for 10 min in 96-well microtitration plates, the O.D. was measured at 550 nm. Sodium nitrite of various concentrations were used to construct standard curves.

[3] = Activity of LAC in culture supernatants / medium over time; type: physicochemical; details: for inhibitory activity of LAC-conditioned media on proteasome activity of fresh Jurkat cells: LAC 6 μM
Method: C. The activity of LAC in culture supernatants is short-lived LAC (6 μM) was added to Jurkat cell culture (0.5×10^6 cells/ml). The supernatants were harvested at 4 h, 6 h, 16 h and 24 h. These conditioned media were used to culture fresh Jurkat cells for 3 h. The cells were then harvested and assayed for the proteasome activity as described in FIG. 4B. Samples were in duplicates.
We also investigated whether LAC was stable in the culture supernatant. LAC (6 μM) was added to Jurkat cells culture for 4 h, 6 h, 16 h or 24 h. The conditioned medium was harvested and used to treat fresh Jurkat cells for 3 h, and then the proteasome activity in the lysates of the fresh Jurkat cells was assayed. […] The loss of LAC activity in the 16 h and 24 h conditioned medium is unlikely due to trapping of LAC by proteasomes released by dead Jurkat cells, because LAC could rapidly enter the live cells and the equilibrium of the LAC concentration between both sides of the cytoplasmic membrane should be established very fast. Thus, the proteasomes whether released or not should not make a difference in terms of trapping LAC. Besides, we have also noticed that LAC kept in cell free culture medium at 4° C. would lose its activity within 24 h (data not shown).

Peripheral blood T cells = test: Mitogen-stimulated T cell proliferation (3H-thymidine uptake); type: cell-based, human; details: for inhibition of subsequent PHA-stimulated proliferation after preincubation and wash: 10 μM LAC; for inhibition of T cell proliferation (3H-thymidine uptake): LAC added at 0 h
Method: Lymphocytes were stimulated with various mitogens as indicated, and LAC at different concentrations was added at the beginning of the cultures. The cells were pulsed with 3H-thymidine between 48 h and 64 h. Samples were in triplicates. All the experiments were performed at least three times and similar results were obtained. Representative results are shown.
A: Peripheral blood T cells stimulated with PHA (2 μg/ml).
B: Peripheral blood T cells stimulated with OKT3 (50 ng/ml).
C: Peripheral blood T cells stimulated with anti-CD28 (50 ng/ml) plus ionomycin (1 μg/ml).
A. The rapid effect of LAC Peripheral blood T cells were pretreated with 10 μM LAC in culture medium or in culture medium alone for 3 h or 16 h. The cells were then washed and recultured in the presence of 2 μg/ml PHA for 64 h. The cells were pulsed with ^3H-thymidine for 16 h before they were harvested at 64 h. Samples were in triplicates.
C and D. LAC blocks the S phase entry of the mitogen-stimulated peripheral blood T cells Peripheral blood T cells were stimulated with PHA (2 μ/ml) in the absence or presence of LAC (10 μM, added at 0 h, 16 h, 24 h, or 40 h, as indicated in the bottom of the panels). For the flow cytometry analysis of the cell cycle progress, the cells were harvested at 0 h, 1 6 h, 40 h and 64 h as indicated on the top of the panels (FIG. 6C). For ^3H-thymidine uptake, the triplicated cell samples were pulsed at 48 h and harvested at 64 h (FIG. 6D).
The role of proteasome in T cell activation and proliferation was first examined in PBMC, using the proteasome-specific inhibitor LAC. The PBMC were activated with various stimulants. LAC was added to the cells in the beginning of the culture (0 h) along with the stimulants. ^3H-thymidine uptake between 48 h and 64 h of 64 h cultures was used as a parameter for cell proliferation. […] Rather, it likely affects certain downstream events governing a more general process(es) in lymphocyte activation and proliferation.
We next investigated how fast and how long LAC could exert its effects on the lymphocytes, since this information is necessary to assess the requirement of the proteasome activity for events related to cell activation and proliferation. The cells were then washed and recultured in the presence of PHA. The thymidine uptake was measured 3 days later.
Peripheral blood mononuclear cells (PBMC) and tonsillar T cells were prepared as described before (Luo et al., 1992, Transplantation 53:1071; Luo et al., 1993, Clin. & Exp. Immunol. 94:371). The cells were cultured in RPMI 1640 supplemented with 10% FCS, L-glutamine and antibiotics. ^3H-thymidine uptake was carried out as described previously (Luo et al., 1992, supra; Luo et al., 1993, supra).

Compound: CC(=O)N[C@@H](CSC(=O)[C@]1([C@@H](O)C(C)C)NC(=O)[C@H](C)[C@@H]1O)C(=O)O [LAC, lactacystin]
- stability in aqueous solutions [1]: unstable
- LPS-induced NO production [2]: effectively repress
- inhibitory activity of LAC-conditioned media on proteasome activity of fresh Jurkat cells ([3]; media conditioned 16 h and 24 h): lost their inhibitory effect
- inhibitory activity of LAC-conditioned media on proteasome activity of fresh Jurkat cells ([3]; media conditioned up to 6 h): could still actively inhibit the enzymatic activity
- time in which LAC loses its activity ([3]; cell free culture medium at 4° C., data not shown): ≤ 24 h
- inhibition of subsequent PHA-stimulated proliferation after preincubation and wash (Peripheral blood T cells; 3 h preincubation): significant inhibition
- inhibition of subsequent PHA-stimulated proliferation after preincubation and wash (Peripheral blood T cells; 16 h preincubation, compared with 3 h): more effective
- inhibition of T cell proliferation (3H-thymidine uptake) (Peripheral blood T cells; Ca++ ionophore plus cross-linking of CD28): strongly and dose-dependently inhibited
- extent of inhibition of T cell proliferation (Peripheral blood T cells; LAC at 5 μM, PHA, anti-CD3, anti-CD28 plus ionomycin systems): near-to-maximal inhibition
- inhibition of 3H-thymidine uptake (Peripheral blood T cells; PHA, LAC 10 μM added as late as 40 h, pulsed 48 h, harvested 64 h): strongly inhibitory
- inhibition of T cell proliferation (3H-thymidine uptake) (Peripheral blood T cells; crosslinking TCR with anti-CD3): strongly and dose-dependently inhibited
- inhibition of T cell proliferation (3H-thymidine uptake) (Peripheral blood T cells; induced by PHA, uptake 48-64 h): strongly and dose-dependently inhibited
